Data taken from patent US11066369B2, “N-(pyridin-2-yl)pyridine-sulfonamide derivatives and their use in the treatment of disease” (Novartis AG, priority 2016, dated 2021).

Columns and labels:
[1] = biological target: T1, horseradish peroxidase (HRP) tagged delF508-CFTR (Homo sapiens, UniProt P13569, DEL508-508); test: Measurement of delF508-CFTR-HRP surface expression in CFBE41o- cells; format: cell-based; conditions: delF508-CFTR-HRP surface expression, CFBE41o- cells; for Emax: read-out: DelF508-CFTR-HRP Amax %; for EC50: read-out: DelF508-CFTR-HRP EC50;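 for DelF508-CFTR-HRP Amax %: percent efficacy relative to reference corrector lumacaftor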
T1 construct: expressed in transfected cells
How it was run: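 Surface-trafficked delF508-CFTR detected via extracellular HRP tag, read as luminescence from a membrane-impermeant substrate in CFBE41o- cells. Cells pre-induced 48h with 500 ng/mL doxycycline, then exposed 24h at 37° C to a 10-point, 3-fold dilution series from 10 μM (DMSO ≤0.5%). Triplicate dose-responses fitted logistically for EC50 after per-plate normalization; fold change versus reference compound.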

delF508-CFTR = biological target: T2, delF508-CFTR (Homo sapiens, UniProt P13569, DEL508-508); test: Measurement of delF508-CFTR functional activity in primary human bronchial epithelial cells (HBECs) using Multi-Transepithelial Clamp Circuit (MTECC-24) assay; format: cell-based; conditions: primary CF HBECs; for MTECC24 CFHBEC- Amax %: test compound added 24h before assay plus potentiator, relative to reference combination (2 μM corrector + 0.5 μM potentiator); for EC50: test compound added 24h before assay, in the presence of potentiator, mean of at least two replicates, read-out: MTECC24 CFHBEC- EC50
T2 construct: functional activity of the CFTR channel (Chloride ion transport) in patient derived primary human bronchial epithelial cells; host or cells: patient-derived primary human bronchial epithelial cells (delF508-CFTR)
How it was run: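 Compound tested as 10-point, 1-in-3 concentration response (0.1% or 0.2% DMSO), 24 h basolateral pre-incubation, then re-added to both sides. MTECC-24 measured Ieq in ALI-differentiated primary delF508 bronchial cells after amiloride, forskolin activation, potentiator and INH-172 block; data normalized to DMSO baseline, EC50 fitted.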

T1 sequence (P13569 with tags, fused parts or gaps DEL508-508): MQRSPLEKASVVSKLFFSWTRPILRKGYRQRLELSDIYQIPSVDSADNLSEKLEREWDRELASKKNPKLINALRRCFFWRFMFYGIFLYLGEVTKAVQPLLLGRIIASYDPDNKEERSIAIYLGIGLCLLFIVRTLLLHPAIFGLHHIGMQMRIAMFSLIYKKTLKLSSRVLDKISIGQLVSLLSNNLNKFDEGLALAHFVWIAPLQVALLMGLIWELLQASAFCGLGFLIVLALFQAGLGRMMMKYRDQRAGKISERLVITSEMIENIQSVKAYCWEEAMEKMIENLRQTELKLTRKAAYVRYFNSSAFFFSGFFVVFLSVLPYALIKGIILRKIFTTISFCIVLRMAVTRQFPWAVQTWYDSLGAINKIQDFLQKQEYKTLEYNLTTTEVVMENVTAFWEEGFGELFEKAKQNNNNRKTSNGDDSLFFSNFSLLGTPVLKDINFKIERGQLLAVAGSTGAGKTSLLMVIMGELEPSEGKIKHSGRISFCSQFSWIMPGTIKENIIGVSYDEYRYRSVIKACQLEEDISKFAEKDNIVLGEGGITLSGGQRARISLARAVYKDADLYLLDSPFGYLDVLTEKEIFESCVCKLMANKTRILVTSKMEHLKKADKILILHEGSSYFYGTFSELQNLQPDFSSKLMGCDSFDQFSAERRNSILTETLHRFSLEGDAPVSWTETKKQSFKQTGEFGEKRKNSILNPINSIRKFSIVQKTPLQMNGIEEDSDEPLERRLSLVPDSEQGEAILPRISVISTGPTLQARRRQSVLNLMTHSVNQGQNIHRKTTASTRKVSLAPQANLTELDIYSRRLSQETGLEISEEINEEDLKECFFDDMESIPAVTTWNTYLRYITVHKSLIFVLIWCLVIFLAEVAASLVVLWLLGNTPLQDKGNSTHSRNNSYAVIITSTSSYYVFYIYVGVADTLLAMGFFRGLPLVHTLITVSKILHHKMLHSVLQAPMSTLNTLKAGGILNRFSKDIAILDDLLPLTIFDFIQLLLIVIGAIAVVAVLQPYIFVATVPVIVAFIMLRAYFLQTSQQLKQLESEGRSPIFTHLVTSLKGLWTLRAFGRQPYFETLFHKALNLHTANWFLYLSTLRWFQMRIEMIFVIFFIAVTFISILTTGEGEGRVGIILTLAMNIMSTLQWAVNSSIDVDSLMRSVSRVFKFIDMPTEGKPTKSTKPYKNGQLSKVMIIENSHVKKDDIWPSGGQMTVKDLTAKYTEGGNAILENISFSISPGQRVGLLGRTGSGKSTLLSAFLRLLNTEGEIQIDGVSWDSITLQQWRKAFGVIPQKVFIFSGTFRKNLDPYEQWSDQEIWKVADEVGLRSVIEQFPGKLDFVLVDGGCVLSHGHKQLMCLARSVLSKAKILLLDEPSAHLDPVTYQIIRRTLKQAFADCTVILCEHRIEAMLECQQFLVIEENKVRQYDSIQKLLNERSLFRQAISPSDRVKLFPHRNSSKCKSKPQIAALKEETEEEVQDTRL
T2 sequence (P13569 with tags, fused parts or gaps DEL508-508): as above

SMILES	Emax [1]	EC50 [1]	MTECC24 CFHBEC- Amax % (delF508-CFTR)	EC50 (delF508-CFTR)
Cc1ccc(F)cc1-c1nc(NS(=O)(=O)c2cccc(N3CC(C)(O)C3)n2)ccc1C(F)(F)F [Example 219, N-(6-(5-fluoro-2-methylphenyl)-5-(trifluoromethyl)pyridin-2-yl)-6-(3-hydroxy-3-methylazetidin-1-yl)pyridine-2-sulfonamide]	711%	1.6 µM	119.0%	0.0111 µM
Cc1ccc(C(F)(F)F)cc1-c1nc(NS(=O)(=O)c2cccc(N3CC(O)C3)n2)ccc1Cl [Example 223, N-(5-chloro-6-(2-methyl-5-(trifluoromethyl)phenyl)pyridin-2-yl)-6-(3-hydroxyazetidin-1-yl)pyridine-2-sulfonamide]	427%	1.92 µM	59.9%	0.0144 µM
O=S(=O)(Nc1ccc(C(F)(F)F)c(-c2ccccc2C(F)(F)F)n1)c1cccc(N2CC(O)C2)n1 [Example 224, 6-(3-hydroxyazetidin-1-yl)-N-(5-(trifluoromethyl)-6-(2-(trifluoromethyl)phenyl)pyridin-2-yl)pyridine-2-sulfonamide]	499%	1.38 µM	63.9%	0.0049 µM
O=S(=O)(Nc1ccc(Cl)c(-c2ccccc2Cl)n1)c1cccc(N2CC(O)C2)n1 [Example 227, N-(5-chloro-6-(2-chlorophenyl)pyridin-2-yl)-6-(3-hydroxyazetidin-1-yl)pyridine-2-sulfonamide]	403%	2.67 µM	104.9%	0.0491 µM
COc1ccc(Cl)c(-c2nc(NS(=O)(=O)c3cccc(N4CC(O)C4)n3)ccc2Cl)c1 [Example 228, N-(5-chloro-6-(2-chloro-5-methoxyphenyl)pyridin-2-yl)-6-(3-hydroxyazetidin-1-yl)pyridine-2-sulfonamide]	405%	2.99 µM	87.0%	0.0381 µM
Cc1c(F)cccc1-c1nc(NS(=O)(=O)c2cccc(N3CC(O)C3)n2)ccc1Cl [Example 232, N-(5-chloro-6-(3-fluoro-2-methylphenyl)pyridin-2-yl)-6-(3-hydroxyazetidin-1-yl)pyridine-2-sulfonamide]	349%	1.7 µM	72.3%	0.0319 µM
Cc1ccc(F)cc1-c1nc(NS(=O)(=O)c2cccc(N3CC(O)(CO)C3)n2)ccc1Cl [Example 235, N-(5-chloro-6-(5-fluoro-2-methylphenyl)pyridin-2-yl)-6-(3-hydroxy-3-(hydroxymethyl)azetidin-1-yl)pyridine-2-sulfonamide]	203%	1.97 µM	57.6%	0.182 µM
CC1(C(=O)O)CCN(c2cccc(S(=O)(=O)Nc3ccc(C(F)(F)F)c(-c4ccccc4C4CC4)n3)n2)CC1 [Example 237, 1-(6-(N-(6-(2-cyclopropylphenyl)-5-(trifluoromethyl)pyridin-2-yl)sulfamoyl)pyridin-2-yl)-4-methylpiperidine-4-carboxylic Acid]	544%	1.46 µM	55.4%	0.0043 µM
CC1(C(=O)O)CCN(c2cccc(S(=O)(=O)Nc3ccc(C(F)(F)F)c(-c4ccccc4Cl)n3)n2)CC1 [Example 238, 1-(6-(N-(6-(2-chlorophenyl)-5-(trifluoromethyl)pyridin-2-yl)sulfamoyl)pyridin-2-yl)-4-methylpiperidine-4-carboxylic Acid]	426%	3.46 µM	59.0%	0.0196 µM

More lines, now with the values ahead:

Emax [1]	EC50 [1]	MTECC24 CFHBEC- Amax % (delF508-CFTR)	EC50 (delF508-CFTR)	SMILES
157%	0.308 µM	66.3%	0.038 µM	Cc1cc(F)ccc1-c1nc(NS(=O)(=O)c2cccc(N3CC(C)(O)C3)n2)ccc1C(F)(F)F [Example 217, N-(6-(4-fluoro-2-methylphenyl)-5-(trifluoromethyl)pyridin-2-yl)-6-(3-hydroxy-3-methylazetidin-1-yl)pyridine-2-sulfonamide]
465%	1.75 µM	59.5%	0.023 µM	Cc1cc(F)ccc1-c1nc(NS(=O)(=O)c2cccc(N3CC(O)C3)n2)ccc1C(F)(F)F [Example 218, N-(6-(4-fluoro-2-methylphenyl)-5-(trifluoromethyl)pyridin-2-yl)-6-(3-hydroxyazetidin-1-yl)pyridine-2-sulfonamide]
902%	1.61 µM	58.6%	0.0032 µM	Cc1ccc(F)cc1-c1nc(NS(=O)(=O)c2cccc(N3CC(O)C3)n2)ccc1C(F)(F)F [Example 220, N-(6-(5-fluoro-2-methylphenyl)-5-(trifluoromethyl)pyridin-2-yl)-6-(3-hydroxyazetidin-1-yl)pyridine-2-sulfonamide]
552%	1.32 µM	63.5%	0.007 µM	CC1(O)CN(c2cccc(S(=O)(=O)Nc3ccc(C(F)(F)F)c(-c4ccccc4Cl)n3)n2)C1 [Example 221, N-(6-(2-chlorophenyl)-5-(trifluoromethyl)pyridin-2-yl)-6-(3-hydroxy-3-methylazetidin-1-yl)pyridine-2-sulfonamide]
427%	1.71 µM	61.1%	0.0106 µM	O=S(=O)(Nc1ccc(C(F)(F)F)c(-c2ccccc2Cl)n1)c1cccc(N2CC(O)C2)n1 [Example 222, N-(6-(2-chlorophenyl)-5-(trifluoromethyl)pyridin-2-yl)-6-(3-hydroxyazetidin-1-yl)pyridine-2-sulfonamide]
361%	2.74 µM	87.7%	0.0176 µM	O=S(=O)(Nc1ccc(C(F)(F)F)c(-c2ccc(F)cc2Cl)n1)c1cccc(N2CC(O)C2)n1 [Example 225, N-(6-(2-chloro-4-fluorophenyl)-5-(trifluoromethyl)pyridin-2-yl)-6-(3-hydroxyazetidin-1-yl)pyridine-2-sulfonamide]
721%	2.4 µM	83.5%	0.0129 µM	COc1ccc(Cl)c(-c2nc(NS(=O)(=O)c3cccc(N4CC(O)C4)n3)ccc2C(F)(F)F)c1 [Example 226, N-(6-(2-chloro-5-methoxyphenyl)-5-(trifluoromethyl)pyridin-2-yl)-6-(3-hydroxyazetidin-1-yl)pyridine-2-sulfonamide]
341%	4.29 µM	69.0%	0.0533 µM	O=S(=O)(Nc1ccc(Cl)c(-c2cccc(F)c2Cl)n1)c1cccc(N2CC(O)C2)n1 [Example 229, N-(5-chloro-6-(2-chloro-3-fluorophenyl)pyridin-2-yl)-6-(3-hydroxyazetidin-1-yl)pyridine-2-sulfonamide]
513%	2.94 µM	60.6%	0.0211 µM	O=S(=O)(Nc1ccc(C(F)(F)F)c(-c2cccc(F)c2Cl)n1)c1cccc(N2CC(O)C2)n1 [Example 230, N-(6-(2-chloro-3-fluorophenyl)-5-(trifluoromethyl)pyridin-2-yl)-6-(3-hydroxyazetidin-1-yl)pyridine-2-sulfonamide]
465%	1.16 µM	71.8%	0.0206 µM	Cc1cccc(C)c1-c1nc(NS(=O)(=O)c2cccc(N3CC(O)C3)n2)ccc1Cl [Example 231, N-(5-chloro-6-(2,6-dimethylphenyl)pyridin-2-yl)-6-(3-hydroxyazetidin-1-yl)pyridine-2-sulfonamide]
586%	1.53 µM	85.3%	0.0052 µM	Cc1ccccc1-c1nc(NS(=O)(=O)c2cccc(N3CC(O)C3)n2)ccc1C(F)(F)F [Example 233, 6-(3-hydroxyazetidin-1-yl)-N-(6-(o-tolyl)-5-(trifluoromethyl)pyridin-2-yl)pyridine-2-sulfonamide]
513%	1.93 µM	84.0%	0.0113 µM	Cc1ccc(F)cc1-c1nc(NS(=O)(=O)c2cccc(N3CC(O)C3)n2)ccc1Cl [Example 234, N-(5-chloro-6-(5-fluoro-2-methylphenyl)pyridin-2-yl)-6-(3-hydroxyazetidin-1-yl)pyridine-2-sulfonamide]
510%	2.89 µM	48.9%	0.0124 µM	COc1ccc(Cl)c(-c2nc(NS(=O)(=O)c3cccc(N4CCC(C)(C(=O)O)CC4)n3)ccc2C(F)(F)F)c1 [Example 241, 1-(6-(N-(6-(2-chloro-5-methoxyphenyl)-5-(trifluoromethyl)pyridin-2-yl)sulfamoyl)pyridin-2-yl)-4-methylpiperidine-4-carboxylic Acid]
468%	2.92 µM	63.2%	0.0203 µM	CC1(C(=O)O)CCN(c2cccc(S(=O)(=O)Nc3ccc(C(F)(F)F)c(-c4cccc(F)c4Cl)n3)n2)CC1 [Example 242, 1-(6-(N-(6-(2-chloro-3-fluorophenyl)-5-(trifluoromethyl)pyridin-2-yl)sulfamoyl)pyridin-2-yl)-4-methylpiperidine-4-carboxylic Acid]
